Legend:
HT-29 [1] = assay: Antiproliferative activity against human HT-29 cells assessed as cell growth inhibition incubated for 72 hrs by MTT assay; assay type: functional
U-87 MG [2] = assay: Antiproliferative activity against human U87 cells assessed as cell growth inhibition incubated for 72 hrs by MTT assay; assay type: functional, U-87MG ATCC
MCF7 [3] = assay: Antiproliferative activity against human MCF7 cells assessed as cell growth inhibition incubated for 72 hrs by MTT assay; assay type: functional
A2780 [4] = assay: Antiproliferative activity against human A2780 cells assessed as cell growth inhibition incubated for 72 hrs by MTT assay; assay type: functional
NCI-H460 [5] = assay: Antiproliferative activity against human NCI-H460 cells assessed as cell growth inhibition incubated for 72 hrs by MTT assay; assay type: functional
A-431 [6] = assay: Antiproliferative activity against human A-431 cells assessed as cell growth inhibition incubated for 72 hrs by MTT assay; assay type: functional
DU-145 [7] = assay: Antiproliferative activity against human DU-145 cells assessed as cell growth inhibition incubated for 72 hrs by MTT assay; assay type: functional
BE(2)-C [8] = assay: Antiproliferative activity against human BE2C cells assessed as cell growth inhibition incubated for 72 hrs by MTT assay; assay type: functional
[9] = Antiproliferative activity against human SJG2 cells assessed as cell growth inhibition incubated for 72 hrs by MTT assay; assay type: functional; details: SJ-G2
MIA PaCa-2 [10] = assay: Antiproliferative activity against human MIA PaCa-2 cells assessed as cell growth inhibition incubated for 72 hrs by MTT assay; assay type: functional
[11] = Cytotoxicity against human MCF-10A cells assessed as cell growth inhibition incubated for 72 hrs by MTT assay; assay type: toxicity, cell-based
HT-29 [12] = assay: Antiproliferative activity against human HT-29 cells assessed as cell growth inhibition at 25 uM incubated for 72 hrs by MTT assay relative to control; assay type: functional
U-87 MG [13] = assay: Antiproliferative activity against human U87 cells assessed as cell growth inhibition at 25 uM incubated for 72 hrs by MTT assay relative to control; assay type: functional, U-87MG ATCC
MCF7 [14] = assay: Antiproliferative activity against human MCF7 cells assessed as cell growth inhibition at 25 uM incubated for 72 hrs by MTT assay relative to control; assay type: functional
A2780 [15] = assay: Antiproliferative activity against human A2780 cells assessed as cell growth inhibition at 25 uM incubated for 72 hrs by MTT assay relative to control; assay type: functional
NCI-H460 [16] = assay: Antiproliferative activity against human NCI-H460 cells assessed as cell growth inhibition at 25 uM incubated for 72 hrs by MTT assay relative to control; assay type: functional
A-431 [17] = assay: Antiproliferative activity against human A-431 cells assessed as cell growth inhibition at 25 uM incubated for 72 hrs by MTT assay relative to control; assay type: functional
DU-145 [18] = assay: Antiproliferative activity against human DU-145 cells assessed as cell growth inhibition at 25 uM incubated for 72 hrs by MTT assay relative to control; assay type: functional
BE(2)-C [19] = assay: Antiproliferative activity against human BE2C cells assessed as cell growth inhibition at 25 uM incubated for 72 hrs by MTT assay relative to control; assay type: functional
[20] = Antiproliferative activity against human SJG2 cells assessed as cell growth inhibition at 25 uM incubated for 72 hrs by MTT assay relative to control; assay type: functional; details: SJ-G2
MIA PaCa-2 [21] = assay: Antiproliferative activity against human MIA PaCa-2 cells assessed as cell growth inhibition at 25 uM incubated for 72 hrs by MTT assay relative to control; assay type: functional
[22] = Cytotoxicity against human MCF-10A cells assessed as cell growth inhibition at 25 uM incubated for 72 hrs by MTT assay relative to control; assay type: toxicity, cell-based

| SMILES | inhibition at 25 µM (HT-29 [12]) [%] | inhibition at 25 µM (U-87 MG [13]) [%] | inhibition at 25 µM (MCF7 [14]) [%] | inhibition at 25 µM (A2780 [15]) [%] | inhibition at 25 µM (NCI-H460 [16]) [%] | inhibition at 25 µM (A-431 [17]) [%] | inhibition at 25 µM (DU-145 [18]) [%] | inhibition at 25 µM (BE(2)-C [19]) [%] | inhibition at 25 µM [20] [%] | inhibition at 25 µM (MIA PaCa-2 [21]) [%] | inhibition at 72 h, 25 µM [22] [%] | also measured |
| --- | --- | --- | --- | --- | --- | --- | --- | --- | --- | --- | --- | --- |
| O=C1NC(c2cccs2)Nc2ccccc21 (stereo unspecified) | 90 | 56 | 91 | 98 | 88 | > 100 | 57 | 91 | 60 | 74 | 84 | GI50 (HT-29 [1]): 7.6 µM; GI50 (U-87 MG [2]): 23 µM; GI50 (MCF7 [3]): 11 µM; GI50 (A2780 [4]): 4.7 µM; GI50 (NCI-H460 [5]): 15 µM; GI50 (A-431 [6]): 7.4 µM; GI50 (DU-145 [7]): 25 µM; GI50 (BE(2)-C [8]): 9.3 µM; GI50 [9]: 23 µM; GI50 (MIA PaCa-2 [10]): 18 µM; GI50 at 72 h [11]: 15 µM |
| O=C1NC(c2cc(O)c(O)c(O)c2)Nc2ccccc21 (stereo unspecified) | 49 | 29 | 56 | 36 | 19 | 21 | 40 | 27 | 10 | 34 | 51 |  |
| O=C1NC(c2c[nH]c3ccccc23)Nc2ccccc21 (stereo unspecified) | ≥ 84 | 70 | 78 | 94 | 87 | ≥ 79 | ≥ 77 | 89 | > 100 | 79 | 90 |  |
| O=C(O)c1cccc(C2NC(=O)c3ccccc3N2)c1 (stereo unspecified) | 24 | 10 | 43 | 10 | 12 | < 10 | 31 | 12 | 12 | 13 | 22 |  |
| O=C1NC(c2ccc3nsnc3c2)Nc2ccccc21 (stereo unspecified) | 35 | < 10 | 49 | 60 | 21 | 25 | 22 | 64 | 29 | 22 | 41 |  |
| N#Cc1ccc2[nH]cc(-c3nc4ccccc4c(=O)[nH]3)c2c1 |  |  |  |  |  |  |  |  |  |  |  | GI50 (HT-29 [1]): 3.9 µM; GI50 (U-87 MG [2]): 3.2 µM; GI50 (MCF7 [3]): 2.7 µM; GI50 (A2780 [4]): 2.7 µM; GI50 (NCI-H460 [5]): 2.5 µM; GI50 (A-431 [6]): 4.9 µM; GI50 (DU-145 [7]): 2.8 µM; GI50 (BE(2)-C [8]): 3.4 µM; GI50 [9]: 2.8 µM; GI50 (MIA PaCa-2 [10]): 3.5 µM; GI50 at 72 h [11]: 3.5 µM |
| COc1cc2c(c(OC)c1OC)-c1ccc(OC)c(=O)cc1[C@@H](NC(C)=O)CC2 [COLCHICINE] | 50 | 21 | 85 | 62 | 35 | 11 | 34 | 61 | 47 | 89 | 57 |  |
| CCCC/C=C/c1nc2ccccc2c(=O)[nH]1 | < 10 | 25 | 16 | 43 | 33 | 22 | 26 | < 10 | 16 | 18 | 11 |  |
| O=C1NC(c2ccccc2C(=O)O)Nc2ccccc21 (stereo unspecified) | 37 | < 10 | 49 | 48 | 43 | 22 | 20 | 19 | 49 | 20 | 20 |  |
| O=C(O)c1ccc(C2NC(=O)c3ccccc3N2)cc1 (stereo unspecified) | 18 | 13 | 41 | < 10 | < 10 | < 10 | 36 | 12 | 10 | 14 | 8 |  |
| O=C1NC(C2CCCCC2)Nc2ccccc21 (stereo unspecified) | 23 | 10 | 18 | 41 | < 10 | 22 | 18 | 32 | < 10 | 12 | 8 |  |
| O=C1NC(c2ccccc2[N+](=O)[O-])Nc2ccccc21 (stereo unspecified) | 28 | 16 | 16 | 33 | 35 | 36 | 27 | < 10 | 33 | 21 | 16 |  |
| N#Cc1cccc(C2NC(=O)c3ccccc3N2)c1 (stereo unspecified) | 31 | 19 | 60 | 54 | 17 | 34 | 26 | 20 | 18 | 14 | 12 |  |
| CCCCC1NC(=O)c2ccccc2N1 (stereo unspecified) | 32 | 9 | 25 | 59 | < 10 | 30 | 25 | 38 | < 10 | 16 | 13 |  |
| Oc1nc(-c2ccncc2)nc2ccccc12 | 11 | < 10 | < 10 | < 10 | 15 | < 10 | < 10 | < 10 | < 10 | 10 | < 10 |  |
| O=C1NC(c2cccnc2)Nc2ccccc21 (stereo unspecified) | < 10 | < 10 | 21 | < 10 | < 10 | < 10 | < 10 | < 10 | < 10 | 11 | < 10 |  |
| O=c1[nH]c(-c2ccccc2Br)nc2ccccc12 | 15 | 14 | 10 | 13 | 20 | 12 | 25 | 23 | 11 | 24 | 17 |  |
| N#Cc1ccc(C2NC(=O)c3ccccc3N2)cc1 (stereo unspecified) | 16 | < 10 | 40 | 18 | 11 | < 10 | 10 | < 10 | 14 | 11 | 10 |  |
| O=C1NC(c2ccc(Br)o2)Nc2ccccc21 (stereo unspecified) | < 10 | < 10 | 13 | 37 | < 10 | < 10 | < 10 | 20 | 12 | < 10 | < 10 |  |
| O=C1NC(C2CCCC2)Nc2ccccc21 (stereo unspecified) | 22 | 11 | 35 | 39 | < 10 | 15 | 22 | 20 | < 10 | 19 | 12 |  |

Source: ChEMBL document CHEMBL5532698, “2,3-Dihydroquinazolin-4(1H)-ones and quinazolin-4(3H)-ones as broad-spectrum cytotoxic agents and their impact on tubulin polymerisation” (RSC Med Chem, 2024)
